The compounds below were run on neutrophils (PMA-stimulated NETosis) (assay: Quantification of NETosis using SYTOX Green). Details: Apocynin at 100 uM; NET-forming cells as percentage of total cells.
Format: cell-based, human
Excerpt: Semi-automated analysis of both phase and fluorescence images of SYTOX Green-stained neutrophils used a MATLAB algorithm. Total cells were counted by scoring phase standard deviation and radial symmetry. NETosis was classified in cells by measuring the DNA area in the fluorescence image and comparing with a select internal training set for each experiment. Unstimulated cells and PMA-stimulated, pyocyanin-inhibited cells served as negative controls. PMA-stimulated cells served as a positive control. NET-forming cells are presented as a percentage of total cells.
For `COc1cc(C(C)=O)ccc1O` [Apocynin, reference compound], the “% NETosis” value was 29.06%.

Same assay, conditions: Homo sapiens, Neutrophil; NETosis, SYTOX Green-stained neutrophils, PMA-stimulated
Work on `CC(=O)Nc1ccc2c(c1)OCc1cc(-c3cccc(C#CCCCO)c3)nn1C2` [Example 5, N-(2-(3-(5-hydroxypent-1-yn-1-yl)phenyl)-4H,10H-benzo[f]pyrazolo[5,1-c][1,4]oxazepin-7-yl)acetamide] yielded an IC50 of 3000 ± 1000 nM. With `COc1cccc(-c2cc3n(n2)Cc2ccc(NC(C)=O)cc2OC3)c1` [Example 2, N-(2-(3-Methoxyphenyl)-4H,10H-benzo[f]pyrazolo[5,1-c][1,4]oxazepin-7-yl)acetamide] the IC50 was 900 ± 200 nM. `COc1ccc(-c2cc3n(n2)Cc2ccc(NC(C)=O)cc2OC3)cc1` [Example 3, N-(2-(4-Methoxyphenyl)-4H,10H-benzo[f]pyrazolo[5,1-c][1,4]oxazepin-7-yl)acetamide] gave an IC50 of 520 ± 60 nM. Work on `CC#CCC(=O)Nc1cccc(-c2cc3n(n2)Cc2ccc(NC(C)=O)cc2OC3)c1` [Example 4, N-(3-(7-acetamido-4H,10H-benzo[f]pyrazolo[5,1-c][1,4]oxazepin-2-yl)phenyl)pent-3-ynamide] yielded an IC50 of 800 ± 20 nM.

Same assay, conditions: compound at 5 uM; NET-forming cells as percentage of total cells; vehicle 79.66, untreated 14.54
For `CC(=O)Nc1ccc2c(c1)OCc1cc(-c3cccc(F)c3)nn1C2` [Example 56], the “5 uM (% NETosis)” value was 35.77%. For `CC(=O)Nc1ccc2c(c1)OCc1cc(-c3cccc4[nH]c(=O)[nH]c34)nn1C2` [Example 86], the “5 uM (% NETosis)” value was 84.35%. With `CC(=O)Nc1ccc2c(c1)OCc1cc(-c3ccc(N4CCCC4)nc3)nn1C2` [Example 79] the “5 uM (% NETosis)” value was 83.33%. For `c1ccc(-c2cc3n(n2)Cc2ccc(-c4cnc5ncccn45)cc2OC3)cc1` [Example 15], the “5 uM (% NETosis)” value was 77.26%. With `C#CCNc1ccc2c(c1)OCc1cc(-c3ccccc3)nn1C2` [Example 41] the “5 uM (% NETosis)” value was 73.65%. With `CC(C)(C)Nc1ccc2c(c1)OCc1cc(-c3ccccc3)nn1C2` [Example 38] the “5 uM (% NETosis)” value was 81.48%. With `COc1ncc(-c2cc3n(n2)Cc2ccc(NC(C)=O)cc2OC3)cn1` [Example 77] the “5 uM (% NETosis)” value was 86.51%. With `N#C[C@H]1C[C@H](Nc2ccc3c(c2)OCc2cc(-c4ccccc4)nn2C3)C1` [Example 29] the “5 uM (% NETosis)” value was 87.44%. In the case of `CC(=O)Nc1ccc2c(c1)OCc1cc(-c3ccc(S(=O)(=O)N4CCOCC4)cc3)nn1C2` [Example 95], the “5 uM (% NETosis)” value is reported as 85.90%. With `COc1cccc(C#N)c1-c1cc2n(n1)Cc1ccc(NC(C)=O)cc1OC2` [Example 94] the “5 uM (% NETosis)” value was 90.90%. With `CC(=O)Nc1ccc2c(c1)OCc1cc(-c3cnn(CCN(C)C)c3)nn1C2` [Example 92] the “5 uM (% NETosis)” value was 81.09%. For `CC(=O)Nc1ccc2c(c1)OCc1cc(-c3ccnc(NC(C)=O)c3)nn1C2` [Example 102], the “5 uM (% NETosis)” value was 85.50%. For `OCC1(Nc2ccc3c(c2)OCc2cc(-c4ccccc4)nn2C3)CC1` [Example 42], the “5 uM (% NETosis)” value was 82.57%. With `CNC(=O)c1ccc(-c2cc3n(n2)Cc2ccc(NC(C)=O)cc2OC3)cn1` [Example 73] the “5 uM (% NETosis)” value was 82.63%. For `CC(=O)Nc1cccc(-c2cc3n(n2)Cc2ccc(NC(C)=O)cc2OC3)c1` [Example 104], the “5 uM (% NETosis)” value was 26.79%. For `CC(=O)Nc1ccc2c(c1)OCc1cc(-c3ccnc4[nH]ccc34)nn1C2` [Example 91], the “5 uM (% NETosis)” value was 77.13%. For `CC(=O)Nc1ccc2c(c1)OCc1cc(-c3ccccc3C)nn1C2` [Example 50], the “5 uM (% NETosis)” value was 72.49%. In the case of `c1ccc(-c2cc3n(n2)Cc2ccc(NC4COC4)cc2OC3)cc1` [Example 30], the “5 uM (% NETosis)” value is reported as 84.70%. For `CC(=O)Nc1ccc2c(c1)OCc1cc(-c3cccc(S(C)(=O)=O)c3)nn1C2` [Example 80], the “5 uM (% NETosis)” value was 46.95%. In the case of `CC(=O)Nc1ccc2c(c1)OCc1cc(-c3cnc4[nH]ccc4c3)nn1C2` [Example 63], the “5 uM (% NETosis)” value is reported as 80.04%. `CC(=O)Nc1ccc2c(c1)OCc1cc(-c3ccccc3NC(C)=O)nn1C2` [Example 105] was tested, and the “5 uM (% NETosis)” value was 70.78%. `CC(=O)Nc1ccc2c(c1)OCc1cc(-c3c(F)cccc3F)nn1C2` [Example 48] was tested, and the “5 uM (% NETosis)” value was 42.40%. In the case of `c1ccc(-c2cc3n(n2)Cc2ccc(-c4cncs4)cc2OC3)cc1` [Example 16], the “5 uM (% NETosis)” value is reported as 80.91%. `CC(=O)Nc1ccc2c(c1)OCc1cc(-c3ccccc3S(C)(=O)=O)nn1C2` [Example 81] was tested, and the “5 uM (% NETosis)” value was 84.34%. `c1ccc(-c2cc3n(n2)Cc2ccc(NC4CC4)cc2OC3)cc1` [Example 26] was tested, and the “5 uM (% NETosis)” value was 78.70%. With `CC(=O)Nc1ccc2c(c1)OCc1cc(-c3ccc(F)cc3O)nn1C2` [Example 51] the “5 uM (% NETosis)” value was 57.20%. For `CC(=O)Nc1ccc2c(c1)OCc1cc(-c3cccc4c3CN(C)C4=O)nn1C2` [Example 90], the “5 uM (% NETosis)” value was 78.83%. `FC1(F)CC1CNc1ccc2c(c1)OCc1cc(-c3ccccc3)nn1C2` (centres unmarked) [Example 40] was tested, and the “5 uM (% NETosis)” value was 71.44%. With `c1ccc(-c2cc3n(n2)Cc2ccc(-c4cnc5n4CCCC5)cc2OC3)cc1` [Example 13] the “5 uM (% NETosis)” value was 80.46%. In the case of `CC(=O)Nc1ccc2c(c1)OCc1cc(-c3ccc(CN(C)C)cc3)nn1C2` [Example 107], the “5 uM (% NETosis)” value is reported as 85.67%. In the case of `CC(=O)Nc1ccc2c(c1)OCc1cc(-c3ccc(C(=O)N4CCOCC4)cc3)nn1C2` [Example 106], the “5 uM (% NETosis)” value is reported as 86.21%. In the case of `CC(=O)Nc1ccc2c(c1)OCc1cc(-c3c(C)n[nH]c3C)nn1C2` [Example 75], the “5 uM (% NETosis)” value is reported as 85.26%. In the case of `Cn1cc(Nc2ccc3c(c2)OCc2cc(-c4ccccc4)nn2C3)cn1` [Example 25], the “5 uM (% NETosis)” value is reported as 78.63%. `CC(=O)Nc1ccc2c(c1)OCc1cc(-c3ccccc3NS(C)(=O)=O)nn1C2` [Example 88] was tested, and the “5 uM (% NETosis)” value was 71.64%. In the case of `COc1ccc(-c2cc3n(n2)Cc2ccc(NC(C)=O)cc2OC3)c(C)c1` [Example 83], the “5 uM (% NETosis)” value is reported as 51.91%. `N#CCn1cc(-c2ccc3c(c2)OCc2cc(-c4ccccc4)nn2C3)cn1` [Example 12, 2-(4-(2-phenyl-4H,10H-benzo[f]pyrazolo[5,1-c][1,4]oxazepin-7-yl)-1H-pyrazol-1-yl)acetonitrile] was tested, and the “5 uM (% NETosis)” value was 81.41%. `CC(=O)Nc1ccc2c(c1)OCc1cc(-c3ccc(S(C)(=O)=O)nc3)nn1C2` [Example 64] was tested, and the “5 uM (% NETosis)” value was 75.82%. With `CC(=O)Nc1ccc2c(c1)OCc1cc(-c3ccnc(C4CC4)c3)nn1C2` [Example 62] the “5 uM (% NETosis)” value was 41.23%. With `CC(=O)Nc1ccc2c(c1)OCc1cc(-c3c(O)cccc3F)nn1C2` [Example 49] the “5 uM (% NETosis)” value was 42.24%. With `COc1ccncc1-c1cc2n(n1)Cc1ccc(NC(C)=O)cc1OC2` [Example 70] the “5 uM (% NETosis)” value was 78.10%. For `c1ccc(-c2cc3n(n2)Cc2ccc(-c4cnn5cccnc45)cc2OC3)cc1` [Example 14], the “5 uM (% NETosis)” value was 83.04%. `CC(=O)Nc1ccc2c(c1)OCc1cc(-c3cn[nH]c3C)nn1C2` [Example 66] was tested, and the “5 uM (% NETosis)” value was 84.91%. With `CC(=O)Nc1ccc2c(c1)OCc1cc(-c3cccc(N(C)C(C)=O)c3)nn1C2` [Example 103] the “5 uM (% NETosis)” value was 75.39%. With `Cn1cc(C#N)c(Nc2ccc3c(c2)OCc2cc(-c4ccccc4)nn2C3)n1` [Example 18] the “5 uM (% NETosis)” value was 79.81%. For `CC(=O)Nc1ccc2c(c1)OCc1cc(-c3ccnn3C3CC3)nn1C2` [Example 60], the “5 uM (% NETosis)” value was 63.78%. In the case of `Cn1nccc1Nc1ccc2c(c1)OCc1cc(-c3ccccc3)nn1C2` [Example 32], the “5 uM (% NETosis)” value is reported as 76.40%. With `Cn1cc(Nc2ccc3c(c2)OCc2cc(-c4ccccc4)nn2C3)c(C#N)n1` [Example 34] the “5 uM (% NETosis)” value was 80.80%. `CC(=O)Nc1ccc2c(c1)OCc1cc(-c3cccc(CC#N)c3)nn1C2` [Example 47] was tested, and the “5 uM (% NETosis)” value was 62.82%. With `Clc1cc(Nc2ccc3c(c2)OCc2cc(-c4ccccc4)nn2C3)[nH]n1` [Example 27] the “5 uM (% NETosis)” value was 54.56%. For `COc1cc(-c2cc3n(n2)Cc2ccc(NC(C)=O)cc2OC3)c(OC)nn1` [Example 85], the “5 uM (% NETosis)” value was 74.51%. With `CC(=O)Nc1ccc2c(c1)OCc1cc(-c3ccc(S(=O)(=O)N4CCN(C)CC4)cc3)nn1C2` [Example 96] the “5 uM (% NETosis)” value was 82.37%. With `FC(F)(F)CNc1ccc2c(c1)OCc1cc(-c3ccccc3)nn1C2` [Example 37] the “5 uM (% NETosis)” value was 83.25%. With `OCCn1cc(Nc2ccc3c(c2)OCc2cc(-c4ccccc4)nn2C3)cn1` [Example 20] the “5 uM (% NETosis)” value was 77.97%. With `CC(=O)Nc1ccc2c(c1)OCc1cc(-c3ccc(F)cc3C#N)nn1C2` [Example 45] the “5 uM (% NETosis)” value was 56.95%. With `CC(=O)Nc1ccc2c(c1)OCc1cc(-c3c(C)cnn3C)nn1C2` [Example 59] the “5 uM (% NETosis)” value was 66.88%. `CC(=O)Nc1ccc2c(c1)OCc1cc(-c3cnn(CC(F)(F)F)c3)nn1C2` [Example 93] was tested, and the “5 uM (% NETosis)” value was 73.17%. For `Cc1cn[nH]c1Nc1ccc2c(c1)OCc1cc(-c3ccccc3)nn1C2` [Example 35], the “5 uM (% NETosis)” value was 73.98%. With `CC(=O)Nc1ccc2c(c1)OCc1cc(-c3cccc(C#N)n3)nn1C2` [Example 78] the “5 uM (% NETosis)” value was 58.91%. In the case of `c1ccc(-c2cc3n(n2)Cc2ccc(NC4CCCC4)cc2OC3)cc1` [Example 21, N-cyclopentyl-2-phenyl-4H,10H-benzo[f]pyrazolo[5,1-c][1,4]oxazepin-7-amine], the “5 uM (% NETosis)” value is reported as 86.47%. For `C#Cc1ccccc1-c1cc2n(n1)Cc1ccc(NC(C)=O)cc1OC2` [Example 44], the “5 uM (% NETosis)” value was 83.27%. With `Cn1cc(-c2ccc3c(c2)OCc2cc(-c4ccccc4)nn2C3)cn1` [Example 11] the “5 uM (% NETosis)” value was 80.81%. In the case of `COc1cncc(-c2cc3n(n2)Cc2ccc(NC(C)=O)cc2OC3)c1` [Example 71], the “5 uM (% NETosis)” value is reported as 69.95%. In the case of `CC(=O)NCc1cc(-c2cc3n(n2)Cc2ccc(NC(C)=O)cc2OC3)ccc1F` [Example 98], the “5 uM (% NETosis)” value is reported as 48.65%. In the case of `CC(=O)Nc1ccc2c(c1)OCc1cc(-c3ccnc(C#N)c3)nn1C2` [Example 69], the “5 uM (% NETosis)” value is reported as 66.18%. For `CC(=O)Nc1ccc2c(c1)OCc1cc(-c3ccc(N(C)C(C)=O)cc3)nn1C2` [Example 82], the “5 uM (% NETosis)” value was 77.67%. With `Clc1[nH]ncc1Nc1ccc2c(c1)OCc1cc(-c3ccccc3)nn1C2` [Example 28, N-(5-chloro-1H-pyrazol-4-yl)-2-phenyl-4H,10H-benzo[f]pyrazolo[5,1-c][1,4]oxazepin-7-amine] the “5 uM (% NETosis)” value was 44.49%.

— US12459957B2, “Therapeutic compounds and methods” (GENENTECH, INC., priority 2021, dated 2025)
